The text below walks through data of patent US6531471B2, “Morpholinone and morpholine derivatives and uses thereof” (Synaptic Pharmaceutical Corporation, priority 1998, dated 2003).

Each structure is given as a SMILES string. Where a name gives a salt, the structure may show the parent alone.

The target of series [1] is T1, human α1b receptor (Homo sapiens, UniProt P35368).
T1 construct: host or cells: LM(tk−) cells, membrane preparation
T1 sequence (P35368 1-520): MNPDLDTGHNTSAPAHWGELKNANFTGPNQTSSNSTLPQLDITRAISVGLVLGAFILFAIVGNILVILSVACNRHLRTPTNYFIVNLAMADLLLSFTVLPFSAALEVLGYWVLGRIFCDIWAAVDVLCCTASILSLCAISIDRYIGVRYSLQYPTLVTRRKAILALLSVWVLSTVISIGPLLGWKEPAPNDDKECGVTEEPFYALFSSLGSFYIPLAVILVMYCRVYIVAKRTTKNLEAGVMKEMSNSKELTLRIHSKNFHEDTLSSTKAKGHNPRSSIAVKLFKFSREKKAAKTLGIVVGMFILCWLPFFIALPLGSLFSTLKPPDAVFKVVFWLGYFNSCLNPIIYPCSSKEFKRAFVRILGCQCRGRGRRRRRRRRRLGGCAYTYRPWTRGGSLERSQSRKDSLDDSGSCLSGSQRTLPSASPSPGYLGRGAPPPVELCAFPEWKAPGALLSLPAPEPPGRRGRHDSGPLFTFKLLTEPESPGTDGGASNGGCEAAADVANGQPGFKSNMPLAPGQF
Kind of series: Radioligand binding assay at cloned human α1b adrenergic receptor. The conditions noted are these: [3H]prazosin 0.5 nM, membrane preparations of transfected LM(tk−) cells, read-out: hα1b Ki. On the procedure: (§1) These cell lines were prepared by transfecting the cloned cDNA or cloned genomic DNA or constructs containing both genomic DNA and cDNA encoding the human α-adrenergic receptors as follows:
The construct involved ligating the full-length containing EcoRI brainstem cDNA fragment from λ ZapII into the expression vector. Stable cell lines were selected as described above.
(§2) Radioligand Binding Assays for α1 receptors: Transfected cells from culture flasks were scraped into 5 ml of 5 mM Tris-HCl, 5 mM EDTA, pH 7.5, and lysed by sonication. The cell lysates were centrifuged at 1000 rpm for 5 min at 4° C., and the supernatant was centrifuged at 30,000×g for 20 min at 4° C. The pellet was suspended in 50 mM Tris-HCl, 1 mM MgCl2, and 0.1% ascorbic acid at pH 7.5. Binding of the α1 antagonist [^3H]prazosin (0.5 nM, specific activity 76.2 Ci/mmol) to membrane preparations of LM(tk−) cells was done in a final volume of 0.25 ml and incubated at 37° C. for 20 min. Nonspecific binding was determined in the presence of […] phentolamine. The reaction was stopped by filtration through GF/B filters using a cell harvester.

For series [2], the target named is T2, human α1a receptor (Homo sapiens, UniProt P35348).
T2 construct: host or cells: LM(tk−) cells, membrane preparation
T2 sequence (P35348 1-466): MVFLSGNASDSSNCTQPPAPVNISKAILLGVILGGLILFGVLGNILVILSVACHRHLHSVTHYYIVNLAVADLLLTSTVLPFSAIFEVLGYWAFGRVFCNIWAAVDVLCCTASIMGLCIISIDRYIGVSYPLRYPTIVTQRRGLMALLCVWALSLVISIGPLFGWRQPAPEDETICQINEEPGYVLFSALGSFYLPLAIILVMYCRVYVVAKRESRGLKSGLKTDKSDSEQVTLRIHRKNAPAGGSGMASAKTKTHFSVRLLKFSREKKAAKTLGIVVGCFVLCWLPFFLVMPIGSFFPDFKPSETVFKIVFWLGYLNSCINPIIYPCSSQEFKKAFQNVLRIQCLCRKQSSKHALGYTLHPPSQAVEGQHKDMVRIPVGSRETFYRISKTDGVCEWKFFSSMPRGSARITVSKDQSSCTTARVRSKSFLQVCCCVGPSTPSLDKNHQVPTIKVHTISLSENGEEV
The series can be described thus: Radioligand binding assay at cloned human α1a adrenergic receptor. The conditions noted are these: [3H]prazosin 0.5 nM, membrane preparations of transfected LM(tk−) cells, read-out: hα1a Ki. The procedure: as §1
The construct involved ligating three partial overlapping fragments: a 5′ 0.6 kb HincII genomic clone, a central 1.8 EcoRI hippocampal cDNA clone, and a 3′ 0.6Kb PstI genomic clone. The hippocampal cDNA fragment overlaps with the 5′ and 3′ genomic clones so that the HincII and PstI sites at the 5′ and 3′ ends of the cDNA clone, respectively, were utilized for ligation. This full-length clone was cloned into the KpnI site of the expression vector, using the 5′ and 3′ KpnI sites of the fragment, derived from vector (i.e., pBluescript) and 3′-untranslated sequences, respectively. Stable cell lines were selected as described above.
as §2

For series [3], the target named is T3, human α1d receptor (Homo sapiens, UniProt P25100).
T3 construct: host or cells: LM(tk−) cells, membrane preparation
T3 sequence (P25100 1-572): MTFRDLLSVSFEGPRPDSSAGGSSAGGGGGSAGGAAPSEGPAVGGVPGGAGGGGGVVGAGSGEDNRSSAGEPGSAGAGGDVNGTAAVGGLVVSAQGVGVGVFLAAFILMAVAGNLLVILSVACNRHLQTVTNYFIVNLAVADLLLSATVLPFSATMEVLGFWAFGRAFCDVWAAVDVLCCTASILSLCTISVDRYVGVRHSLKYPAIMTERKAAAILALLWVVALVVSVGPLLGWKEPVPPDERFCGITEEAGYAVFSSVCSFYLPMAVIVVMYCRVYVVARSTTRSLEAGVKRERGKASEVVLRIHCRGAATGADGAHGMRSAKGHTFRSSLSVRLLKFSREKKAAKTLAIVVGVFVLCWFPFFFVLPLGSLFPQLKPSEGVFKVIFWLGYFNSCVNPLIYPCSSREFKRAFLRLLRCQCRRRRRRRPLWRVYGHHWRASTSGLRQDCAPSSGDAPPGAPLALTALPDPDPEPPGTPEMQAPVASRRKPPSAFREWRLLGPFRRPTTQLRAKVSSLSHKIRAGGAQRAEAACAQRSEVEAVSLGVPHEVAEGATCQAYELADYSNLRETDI
The series can be described thus: Radioligand binding assay at cloned human α1d adrenergic receptor. As to conditions: [3H]prazosin 0.5 nM, membrane preparations of transfected LM(tk−) cells, read-out: hα1d Ki. On the procedure:
as §1
The cells were grown, in a controlled environment (37° C., 5% CO2), as monolayers in Dulbecco's modified Eagle's Medium (GIBCO, Grand Island, N.Y.) containing 25 mM glucose and supplemented with 10% bovine calf serum, 100 units/ml penicillin g, and 100 μg/ml streptomycin sulfate.
as §2

In the case of `COc1ccc(F)cc1C1(c2ccccc2)CCN(CCCNC(=O)N2C(=O)COCC2c2ccc(F)c(F)c2)CC1` (single isomer, unassigned; (+)) (as salt: HCl) [Compound 1, (+)-3-(3,4-Difluorophenyl)-5-oxo-morpholine-4-carboxylic acid-{3-[4-(5-fluoro-2-methoxyphenyl)-4-phenyl-piperidin-1-yl}-propyl}-amide], the melting point is 110 to 113 °C.
With `COc1ccc(F)cc1C1(c2ccccc2)CCN(CCCNC(=O)N2C(=O)COCC2c2ccc(F)c(F)c2)CC1` (single isomer, unassigned; (+)) [Compound 1, (+)-3-(3,4-Difluorophenyl)-5-oxo-morpholine-4-carboxylic acid-{3-[4-(5-fluoro-2-methoxyphenyl)-4-phenyl-piperidin-1-yl}-propyl}-amide], the results for the Ki in series [1], in series [2] and in series [3] were 244 nM, 1.6 nM and 307 nM, respectively.
`CC1OCC(=O)N(C(=O)NCCCN2CCC(C#N)(c3ccccc3)CC2)C1c1ccc(F)c(F)c1` (single isomer, unassigned; (+)) [Compound 14] yielded a melting point of 191 to 194 °C. Moreover, the Ki in series [1] came out at 1460 nM. Besides, the Ki in series [2] turned out to be 2.6 nM. Moreover, the Ki in series [3] was determined as 4200 nM.
In the case of `NC(=O)c1ccccc1N1CCN(CCCNC(=O)N2C(=O)COCC2c2ccc(F)c(F)c2)CC1` (centres unmarked) [Compound 4, 3-(3,4-Difluoro-phenyl)-5-oxo-morpholine-4-carboxylic acid-{3-[4-(2-carboxamido)-phenyl-piperiazin-1-yl]-propyl}-amide], the Ki in series [1] came to 3630 nM; in series [2], 32 nM; in series [3], 3160 nM.
For the compound `N#CC1(c2ccccc2)CCC(NCCNC(=O)N2C(=O)COCC2c2ccc(F)c(F)c2)CC1` (centres unmarked) [Compound 7], the Ki in series [1] worked out at 246 nM; in series [2], 12.6 nM; in series [3], 204 nM.
On to `CC1(C)OCC(=O)N(C(=O)NCCCN2CCC(c3ccccn3)CC2)C1c1ccc(F)c(F)c1` (centres unmarked) [Compound 17, N-4-[3-{4-(2-pyridyl}piperidino)propyl]-3-(3,4-difluorophenyl)-2,2-dimethyl-5-oxo-4-morpholinecarboxamide hydrochloride], for which the figures for the Ki in series [1], in series [2] and in series [3] were 464 nM, 3.8 nM and 580 nM, respectively.
